Data taken from patent publication US11395857B2, “Radiolabeled melanocortin 1 receptor-specific alpha-melanocyte-stimulating hormone analogues for imaging or therapy” (PROVINCIAL HEALTH SERVICES AUTHORITY, priority 2018, dated 2022).
Where two headings read alike, the source gives them in different places.

Tests used:
B16F10 mouse melanoma = experiment: Biodistribution of 177Lu-labeled αMSH analogues in mice bearing B16F10 mouse melanoma; format: in vivo, C57BL/6J mice; settings: C57BL/6J mice, B16F10 melanoma
Description: (§1) The B16-F10 mouse melanoma cells were cultured and inoculated in mice as described in Example 1.
(§2) For biodistribution studies, approximately 1-2 MBq of ^177Lu-labeled αMSH analogues via tail vein under anesthesia. At 1, 4, 24, and 120 h p.i., the mice were euthanized by CO2 inhalation. Organs/tissues were harvested and the radioactivity was measured as described in Example 1.

[1] = as above; format: in vivo, C57BL/6J mice; settings: mouse, iv, total radioactivity, C57BL/6J mice, B16F10 melanoma
Description: as §1, §2

Question: Which results are given for `CCCC[C@H](NC(=O)CN1CCC(NC(=O)[C@H](CCCCNC(=O)CN2CCN(CC(=O)O)CCN(CC(=O)O)CCN(CC(=O)O)CC2)NC(=O)[C@H](CCC(=O)O)NC(=O)CCCc2ccc(I)cc2)CC1)C(=O)N[C@H]1CC(=O)NCCCC[C@@H](C(N)=O)N(C)C(=O)[C@H](Cc2c[nH]c3ccccc23)NC(=O)[C@H](CCCNC(=N)N)N(C)C(=O)[C@@H](Cc2ccccc2)NC(=O)[C@H](Cc2c[nH]cn2)NC1=O` [^177Lu-labeled CCZ01118, metal not drawn]?
Answer: Biodistribution, B16F10 tumour (B16F10 mouse melanoma; 1 h p.i.): 24.4 ± 1.76 % ID/g; Biodistribution, B16F10 tumour (B16F10 mouse melanoma; 4 h p.i.): 29.7 ± 5.23 % ID/g; Biodistribution, B16F10 tumour (B16F10 mouse melanoma; 24 h p.i.): 18.4 ± 1.35 % ID/g; Biodistribution, B16F10 tumour (B16F10 mouse melanoma; 120 h p.i.): 2.63 ± 0.21 % ID/g; tissue uptake at 1 h ([1]; male, seminal glands, 1 h p.i., read-out: Biodistribution, Seminal glands): 0.5 ± 0.11 %ID/g; tissue uptake at 4 h ([1]; male, seminal glands, 4 h p.i., read-out: Biodistribution, Seminal glands): 0.15 ± 0.06 %ID/g; tissue uptake at 24 h ([1]; male, seminal glands, 24 h p.i., read-out: Biodistribution, Seminal glands): 0.04 ± 0.01 %ID/g; tissue uptake at 120 h ([1]; male, seminal glands, 120 h p.i., read-out: Biodistribution, Seminal glands): 0.02 ± 0.01 %ID/g; tissue uptake at 1 h ([1]; male, testes, 1 h p.i., read-out: Biodistribution, Testes): 1.07 ± 0.11 %ID/g; tissue uptake at 4 h ([1]; male, testes, 4 h p.i., read-out: Biodistribution, Testes): 0.4 ± 0.14 %ID/g; tissue uptake at 24 h ([1]; male, testes, 24 h p.i., read-out: Biodistribution, Testes): 0.16 ± 0.02 %ID/g; tissue uptake at 120 h ([1]; male, testes, 120 h p.i., read-out: Biodistribution, Testes): 0.1 ± 0.01 %ID/g; tissue uptake at 1 h ([1]; adrenal glands, 1 h p.i., read-out: Biodistribution, Adrenal glands): 2.9 ± 1.51 %ID/g; tissue uptake at 4 h ([1]; adrenal glands, 4 h p.i., read-out: Biodistribution, Adrenal glands): 0.54 ± 0.48 %ID/g; tissue uptake at 24 h ([1]; adrenal glands, 24 h p.i., read-out: Biodistribution, Adrenal glands): 0.2 ± 0.09 %ID/g; tissue uptake at 120 h ([1]; adrenal glands, 120 h p.i., read-out: Biodistribution, Adrenal glands): 0.18 ± 0.06 %ID/g; tissue uptake at 1 h ([1]; blood, 1 h p.i., read-out: Biodistribution, Blood): 6.87 ± 0.88 %ID/g; tissue uptake at 4 h ([1]; blood, 4 h p.i., read-out: Biodistribution, Blood): 1.41 ± 0.6 %ID/g; tissue uptake at 24 h ([1]; blood, 24 h p.i., read-out: Biodistribution, Blood): 0.05 ± 0.02 %ID/g; tissue uptake at 120 h ([1]; blood, 120 h p.i., read-out: Biodistribution, Blood): 0.01 %ID/g; tissue uptake at 1 h ([1]; bone, 1 h p.i., read-out: Biodistribution, Bone): 0.96 ± 0.18 %ID/g; tissue uptake at 4 h ([1]; bone, 4 h p.i., read-out: Biodistribution, Bone): 0.29 ± 0.11 %ID/g; tissue uptake at 24 h ([1]; bone, 24 h p.i., read-out: Biodistribution, Bone): 0.13 ± 0.03 %ID/g; tissue uptake at 120 h ([1]; bone, 120 h p.i., read-out: Biodistribution, Bone): 0.12 ± 0.04 %ID/g; tissue uptake at 1 h ([1]; brain, 1 h p.i., read-out: Biodistribution, Brain): 0.13 ± 0.01 %ID/g; tissue uptake at 4 h ([1]; brain, 4 h p.i., read-out: Biodistribution, Brain): 0.03 ± 0.02 %ID/g; tissue uptake at 24 h ([1]; brain, 24 h p.i., read-out: Biodistribution, Brain): 0.01 %ID/g; tissue uptake at 120 h ([1]; brain, 120 h p.i., read-out: Biodistribution, Brain): 0.01 %ID/g; tissue uptake at 1 h ([1]; fat, 1 h p.i., read-out: Biodistribution, Fat): 0.43 ± 0.08 %ID/g; tissue uptake at 4 h ([1]; fat, 4 h p.i., read-out: Biodistribution, Fat): 0.12 ± 0.03 %ID/g; tissue uptake at 24 h ([1]; fat, 24 h p.i., read-out: Biodistribution, Fat): 0.03 ± 0.01 %ID/g; tissue uptake at 120 h ([1]; fat, 120 h p.i., read-out: Biodistribution, Fat): 0.02 ± 0.01 %ID/g; tissue uptake at 1 h ([1]; heart, 1 h p.i., read-out: Biodistribution, Heart): 1.93 ± 0.16 %ID/g; tissue uptake at 4 h ([1]; heart, 4 h p.i., read-out: Biodistribution, Heart): 0.45 ± 0.19 %ID/g; tissue uptake at 24 h ([1]; heart, 24 h p.i., read-out: Biodistribution, Heart): 0.08 ± 0.01 %ID/g; tissue uptake at 120 h ([1]; heart, 120 h p.i., read-out: Biodistribution, Heart): 0.05 %ID/g; tissue uptake at 1 h ([1]; intestine, 1 h p.i., read-out: Biodistribution, Intestine): 1.2 ± 0.2 %ID/g; tissue uptake at 4 h ([1]; intestine, 4 h p.i., read-out: Biodistribution, Intestine): 1.53 ± 2.04 %ID/g; tissue uptake at 24 h ([1]; intestine, 24 h p.i., read-out: Biodistribution, Intestine): 0.21 ± 0.05 %ID/g; tissue uptake at 120 h ([1]; intestine, 120 h p.i., read-out: Biodistribution, Intestine): 0.1 ± 0.04 %ID/g; tissue uptake at 1 h ([1]; kidneys, 1 h p.i., read-out: Biodistribution, Kidneys): 12 ± 0.83 %ID/g; tissue uptake at 4 h ([1]; kidneys, 4 h p.i., read-out: Biodistribution, Kidneys): 12.7 ± 3.58 %ID/g; tissue uptake at 24 h ([1]; kidneys, 24 h p.i., read-out: Biodistribution, Kidneys): 6.32 ± 0.43 %ID/g; tissue uptake at 120 h ([1]; kidneys, 120 h p.i., read-out: Biodistribution, Kidneys): 1.43 ± 0.31 %ID/g; tissue uptake at 1 h ([1]; liver, 1 h p.i., read-out: Biodistribution, Liver): 3.65 ± 0.25 %ID/g; tissue uptake at 4 h ([1]; liver, 4 h p.i., read-out: Biodistribution, Liver): 3.58 ± 0.85 %ID/g; tissue uptake at 24 h ([1]; liver, 24 h p.i., read-out: Biodistribution, Liver): 2.59 ± 0.31 %ID/g; tissue uptake at 120 h ([1]; liver, 120 h p.i., read-out: Biodistribution, Liver): 1.25 ± 0.51 %ID/g; tissue uptake at 1 h ([1]; lungs, 1 h p.i., read-out: Biodistribution, Lungs): 6.71 ± 3.02 %ID/g; tissue uptake at 4 h ([1]; lungs, 4 h p.i., read-out: Biodistribution, Lungs): 2.34 ± 0.63 %ID/g; tissue uptake at 24 h ([1]; lungs, 24 h p.i., read-out: Biodistribution, Lungs): 0.33 ± 0.08 %ID/g; tissue uptake at 120 h ([1]; lungs, 120 h p.i., read-out: Biodistribution, Lungs): 0.14 ± 0.08 %ID/g; tissue uptake at 1 h ([1]; muscle, 1 h p.i., read-out: Biodistribution, Muscle): 0.75 ± 0.09 %ID/g; tissue uptake at 4 h ([1]; muscle, 4 h p.i., read-out: Biodistribution, Muscle): 0.18 ± 0.09 %ID/g; tissue uptake at 24 h ([1]; muscle, 24 h p.i., read-out: Biodistribution, Muscle): 0.03 ± 0.01 %ID/g; tissue uptake at 120 h ([1]; muscle, 120 h p.i., read-out: Biodistribution, Muscle): 0.02 %ID/g; tissue uptake at 1 h ([1]; pancreas, 1 h p.i., read-out: Biodistribution, Pancreas): 1.13 ± 0.24 %ID/g; tissue uptake at 4 h ([1]; pancreas, 4 h p.i., read-out: Biodistribution, Pancreas): 0.31 ± 0.08 %ID/g; tissue uptake at 24 h ([1]; pancreas, 24 h p.i., read-out: Biodistribution, Pancreas): 0.08 ± 0.02 %ID/g; tissue uptake at 120 h ([1]; pancreas, 120 h p.i., read-out: Biodistribution, Pancreas): 0.05 ± 0.01 %ID/g; tissue uptake at 1 h ([1]; spleen, 1 h p.i., read-out: Biodistribution, Spleen): 2.06 ± 0.21 %ID/g; tissue uptake at 4 h ([1]; spleen, 4 h p.i., read-out: Biodistribution, Spleen): 1.02 ± 0.27 %ID/g; tissue uptake at 24 h ([1]; spleen, 24 h p.i., read-out: Biodistribution, Spleen): 0.64 ± 0.09 %ID/g; tissue uptake at 120 h ([1]; spleen, 120 h p.i., read-out: Biodistribution, Spleen): 0.35 ± 0.15 %ID/g; tissue uptake at 1 h ([1]; stomach, 1 h p.i., read-out: Biodistribution, Stomach): 0.74 ± 0.18 %ID/g; tissue uptake at 4 h ([1]; stomach, 4 h p.i., read-out: Biodistribution, Stomach): 2.33 ± 4.11 %ID/g; tissue uptake at 24 h ([1]; stomach, 24 h p.i., read-out: Biodistribution, Stomach): 0.42 ± 0.13 %ID/g; tissue uptake at 120 h ([1]; stomach, 120 h p.i., read-out: Biodistribution, Stomach): 0.2 ± 0.09 %ID/g; tissue uptake at 1 h ([1]; thyroid, 1 h p.i., read-out: Biodistribution, Thyroid): 2.47 ± 0.26 %ID/g; tissue uptake at 4 h ([1]; thyroid, 4 h p.i., read-out: Biodistribution, Thyroid): 1.66 ± 0.42 %ID/g; tissue uptake at 24 h ([1]; thyroid, 24 h p.i., read-out: Biodistribution, Thyroid): 1.59 ± 0.15 %ID/g; tissue uptake at 120 h ([1]; thyroid, 120 h p.i., read-out: Biodistribution, Thyroid): 1.03 ± 0.24 %ID/g; tissue to tissue ratio at 1 h ([1]; tumour/blood, 1 h p.i., read-out: Tumour/blood): 3.58 ± 0.31; tissue to tissue ratio at 4 h ([1]; tumour/blood, 4 h p.i., read-out: Tumour/blood): 24.3 ± 9.37; tissue to tissue ratio at 24 h ([1]; tumour/blood, 24 h p.i., read-out: Tumour/blood): 397 ± 123; tissue to tissue ratio at 120 h ([1]; tumour/blood, 120 h p.i., read-out: Tumour/blood): 339 ± 149; tissue to tissue ratio at 1 h ([1]; tumour/kidney, 1 h p.i., read-out: Tumour/kidney): 2.04 ± 0.15; tissue to tissue ratio at 4 h ([1]; tumour/kidney, 4 h p.i., read-out: Tumour/kidney): 2.47 ± 0.8; tissue to tissue ratio at 24 h ([1]; tumour/kidney, 24 h p.i., read-out: Tumour/kidney): 2.91 ± 0.2; tissue to tissue ratio at 120 h ([1]; tumour/kidney, 120 h p.i., read-out: Tumour/kidney): 1.89 ± 0.37; tissue to tissue ratio at 1 h ([1]; tumour/muscle, 1 h p.i., read-out: Tumour/muscle): 32.9 ± 2.98; tissue to tissue ratio at 4 h ([1]; tumour/muscle, 4 h p.i., read-out: Tumour/muscle): 194 ± 82.7; tissue to tissue ratio at 24 h ([1]; tumour/muscle, 24 h p.i., read-out: Tumour/muscle): 556 ± 108; tissue to tissue ratio at 120 h ([1]; tumour/muscle, 120 h p.i., read-out: Tumour/muscle): 173 ± 19; excreta dose per gram or mL at 1 h ([1]; urine, 1 h p.i.): 158 ± 83.1 %ID/g; excreta dose per gram or mL at 4 h ([1]; urine, 4 h p.i.): 124 ± 8.4 %ID/g; excreta dose per gram or mL at 24 h ([1]; urine, 24 h p.i.): 4.39 ± 2.89 %ID/g; excreta dose per gram or mL at 120 h ([1]; urine, 120 h p.i.): 1.11 ± 0.72 %ID/g
